Measured values: US6838560B1, “Process for manufacturing morpholino-nucleotides, and use thereof for the analysis of and labelling of nucleic acid sequences” (priority 1999, dated 2005)

How the values were obtained:
Format in all cases: biochemical
[1] = biological target: T1, Klenow exonuclease-free polymerase (Escherichia coli, UniProt P00582, D355A/E357A); assay: Template-dependent 3' labelling / primer A extension, polyacrylamide gel; conditions: for enzymatic incorporation at 3' end of primer A: MATPP 400, 200, 50 μM, MATPPF 2.5 mM, 400, 200, 50 μM, 37° C., 10 minutes; for interruption of chain elongation after incorporation: with dGTP and dTTP (solution 2P), FIG. 4
T1 construct: purchased Amersham Life Science
Method: (§1) Use of morpholino A putrescine (MATPP) and morpholino A fluorescein (MATPPF) for the template-dependent 3′ labelling of DNA fragments; test of enzymatic incorporation of these compounds by three polymerases (Taq, Klenow, Klenow Exo Free) and a reverse transcriptase.
(§2) These two nucleoside triphosphate derivatives are tested in enzymatic incorporation to label an oligonucleotide 13 bases long at its 3′ end. This labelling is referred to as “template-dependent” since the enzymes used need the complementary strand to extend the oligonucleotide according to the Watson & Crick rules. Sequence A (17870 pmol/mL) studied and also its complementary target C (16128 pmol/mL) are given in the figure below: • Target C: 3′-TGCCAACCAACCCCACCTCAACCTCTG-5′ (SEQ ID NO: 7) • Primer A: 5′-ACG GTT GGT TGG G (13 bp) (SEQ ID NO: 8) • Expected fragments: 5′-ACG GTT TGG GGT GGA (18 bp) (SEQ ID NO: 9) • and lengths (bp): 5′-ACGGTTGGTTGGGGTGGAGTTGGA (24 bp)(SEQ ID NO: 10) 5′-ACGGTTGGTTGGGGTGGAGTTGGAGA (26 bp) (SEQ ID NO: 11) 5′-ACGGTTGGTTGGGGTGGAGTTGGAGAC (27 bp) (SEQ ID NO: 12)
(§3) Three enzymes are used for this labelling: Taq DNA polymerase (Boehringer Mannheim), the Klenow fragment (Boehringer Mannheim) and the Klenow exonuclease-free polymerase (Amersham Life Science). The primer is labelled at its 5′ end by incorporation of ^32P phosphate with the “Ready to go” T4 Polynucleotide Kinase kit (Pharmacia Biotech). The radiolabelled primer is noted A*.
(§4) The reaction buffers for the three enzymes are prepared for 10 reactions:
(§5) The enzymes are then diluted in the following manner, for 10 reactions: • Taq (5U/μL): 10×0.1 μL of Taq+10×15.5 μL of H2O • Klenow (20U/μL): 10×0.1 μL of Klenow+10×15.5 μL of H2O • Klenow Exo Free (5U/μL): 10×0.1 μL of Klenow Exo Free+10×15.5 μL of H2O.
(§6) Solutions containing the normal nucleoside triphosphates are also prepared: • Solution “2P” composed of a mixture of dGTP and dTTP each at 0.1 mM • Solution “4P” composed of a mixture of dATP, dCTP, dGTP and dTTP each at 0.1 mM
(§7) The implementation reactions are described in Table 14 below:
(§8) The morpholino A putrescine is thus tested at three concentrations: 400, 200 and 50 μM, while the morpholino A fluorescein is reacted at 2.5 mM, 400, 200 and 50 μM.
(§9) Before adding the enzyme, the mixture is denatured at 94° C. for 5 minutes. It is then left to return to ambient temperature in order for the hybridization to take place. The elongation is carried out at 70° C. for the Taq and at 37° C. for the two Klenow fragments, and for 10 minutes. Finally, the medium is again denatured with a formamide solution and heating at 90° C. for 5 minutes, after which it is placed on a polyacrylamide gel. The separation is carried out by electrophoresis at 2000 V. The gel is read using a Phosphorimager; the results obtained are given in FIG. 4.
(§10) In this figure, the lanes 1 serve as migration control for the labelled oligonucleotide A. This oligonucleotide has a length of 13 bases (13-mer). Lanes 2, 3 and 4 allow the elongation of the oligonucleotide A and the incorporation of the morpholino A putrescine to be monitored. Under these conditions, only the nucleotides dGTP and dTTP (solution “2P”) were added and can be used by the enzyme to carry out the extention of the primer. The presence of the morpholino A putrescine in the reaction medium allows its incorporation at the level of base 18. A control was carried out, placing in the medium only the “2P” mixture; in this case, the enzyme continues its extension up to the 17th base since it has no adenosine derivative to continue its polymerization. […] Reactions 5 to 8 correspond to the same reactions with morpholino A fluorescein. […] It is noted, however, for the two Klenow fragments, that there was occasionally incorporation of another base (G or T) in place of the morpholino derivative. Specifically, in these cases, elongation products corresponding to the 18-mer and 24-mer are found. […]

Klenow fragment = biological target: T2, Klenow fragment (Escherichia coli, UniProt P00582); assay: as above; conditions: for enzymatic incorporation at 3' end of primer A: MATPP 400, 200, 50 μM, MATPPF 2.5 mM, 400, 200, 50 μM, 37° C., 10 minutes; for interruption of chain elongation after incorporation: with dGTP and dTTP (solution 2P), FIG. 4
T2 construct: the Klenow fragment (Boehringer Mannheim); purchased Boehringer Mannheim
Method: as §1, §2, §3, §4, §5, §6, §7, §8, §9, §10

Taq DNA polymerase = biological target: T3, Taq DNA polymerase (Thermus aquaticus, UniProt P19821); assay: as above; conditions: for enzymatic incorporation at 3' end of primer A: MATPP 400, 200, 50 μM, MATPPF 2.5 mM, 400, 200, 50 μM, 70° C., 10 minutes; for interruption of chain elongation after incorporation: with dGTP and dTTP (solution 2P), FIG. 4
T3 construct: purchased Boehringer Mannheim
Method: as §1, §2, §3, §4, §5, §6, §7, §8, §9, §10

Taq polymerase = biological target: T4, Taq polymerase (Thermus aquaticus, UniProt P19821); assay: Sequencing reaction with fluorescent primers on Bluescript plasmid DNA (Example 13); conditions: 200 and 500 μM; Bluescript plasmid template; FIG. 1
T4 construct: purchased Perkin-Elmer
Method: The morpholino T glycine 4 of Example 2 is tested in sequence reaction with fluorescent primers (Applied Biosystems, Perkin-Elmer, Foster City, Calif., USA) on a standard template which is a Bluescript plasmid DNA (Stratagene, La Jolla, Calif., USA). The enzyme used is a Taq polymerase (Perkin-Elmer), which is used in its buffer (TACS buffer, Perkin-Elmer).
Two reactions are carried out with morpholino T glycine at 200 and 500 μM (Table 4), and also two control reactions (Table 5) with dideoxynucleotide T (Boehringer).
The reaction medium, of a total volume of 10 μL, contains 125 ng of template, 1.25 pmol of fluorescent primer and the other constituents given in Tables 4 and 5. The medium is subjected to heat cycles in order to produce in number molecules of newly formed DNA strands. […]
The products of the sequencing reactions are detected by fluorescence. The results obtained are represented in the attached figure which illustrates the detection of the products in the sequencing gel analysed by the Perkin-Elmer Analysis software, version 3.0.
For each test, the primers are identifiable by their fluorescence properties, the ROX label (red) for the control reaction 250 μm dideoxythymidine triphosphate (dashed-curve) and the label JOE (green) for the reaction concerning the 200 μm morpholino T glycine (solid-line curve).

Taq polyerase = biological target: T5, Taq polyerase (Thermus aquaticus, UniProt P19821); assay: Sequencing reaction with fluorescent primers on Bluescript plasmid DNA (Example 14); conditions: fluorescence detection of the sequencing products
T5 construct: purchased Perkin-Elmer
Method: Morpholino A putrescine (MATPP) 7 and morpholino A fluorescein (MATPPF) 12 are tested in squencing reaction with fluorescent primers (Applied Biosystems, Perkin-Elmer, Foster City, Calif., USA) on a standard template which is a Bluescript plasmid DNA (Stratagene, La Jolla, Calif., USA). The enzyme used is a Taq polyerase (Perkin-Elmer) which is used in its buffer (Thermo Sequenase buffer, Amersham Life Science).
Three sequencing reactions are carried out with MATPP at 100, 200 and 400 μM and four sequencing reactions are carried out with MATPPF at 200, 500, 1000 and 5000 μM, along with control reactions with the dideoxynucleotide ddATP at a concentration of 250 μM (Boehringer).
The reaction medium, of a total volume of 10 μL, contains 125 ng of template, 1.25 pmol of fluorescent primer and the other constituents as described in the tables.
The medium is subjected to heating cycles in order to produce in number molecules of newly formed DNA strands. […]
The amplification products are purified on a Sephadex G50 column. The products of each sequencing reaction are mixed with the products of a control reaction and analysed by electrophoresis. […]

T1 sequence (P00582 324-928 D355A/E357A): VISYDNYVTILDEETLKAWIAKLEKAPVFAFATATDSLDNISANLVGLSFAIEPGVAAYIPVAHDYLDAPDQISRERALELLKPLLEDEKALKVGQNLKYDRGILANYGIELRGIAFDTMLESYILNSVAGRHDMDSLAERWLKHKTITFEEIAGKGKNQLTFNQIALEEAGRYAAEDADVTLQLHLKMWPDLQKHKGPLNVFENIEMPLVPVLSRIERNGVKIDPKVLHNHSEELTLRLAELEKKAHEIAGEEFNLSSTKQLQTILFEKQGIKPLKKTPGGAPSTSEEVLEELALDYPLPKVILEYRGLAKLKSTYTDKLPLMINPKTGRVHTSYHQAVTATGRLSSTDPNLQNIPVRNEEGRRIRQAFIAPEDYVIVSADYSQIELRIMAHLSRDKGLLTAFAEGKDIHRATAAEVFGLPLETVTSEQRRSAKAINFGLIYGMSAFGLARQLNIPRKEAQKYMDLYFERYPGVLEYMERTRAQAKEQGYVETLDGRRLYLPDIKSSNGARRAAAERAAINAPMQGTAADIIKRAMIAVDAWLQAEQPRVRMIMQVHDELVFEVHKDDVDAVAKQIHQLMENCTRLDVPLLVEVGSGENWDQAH
T2 sequence (P00582 324-928): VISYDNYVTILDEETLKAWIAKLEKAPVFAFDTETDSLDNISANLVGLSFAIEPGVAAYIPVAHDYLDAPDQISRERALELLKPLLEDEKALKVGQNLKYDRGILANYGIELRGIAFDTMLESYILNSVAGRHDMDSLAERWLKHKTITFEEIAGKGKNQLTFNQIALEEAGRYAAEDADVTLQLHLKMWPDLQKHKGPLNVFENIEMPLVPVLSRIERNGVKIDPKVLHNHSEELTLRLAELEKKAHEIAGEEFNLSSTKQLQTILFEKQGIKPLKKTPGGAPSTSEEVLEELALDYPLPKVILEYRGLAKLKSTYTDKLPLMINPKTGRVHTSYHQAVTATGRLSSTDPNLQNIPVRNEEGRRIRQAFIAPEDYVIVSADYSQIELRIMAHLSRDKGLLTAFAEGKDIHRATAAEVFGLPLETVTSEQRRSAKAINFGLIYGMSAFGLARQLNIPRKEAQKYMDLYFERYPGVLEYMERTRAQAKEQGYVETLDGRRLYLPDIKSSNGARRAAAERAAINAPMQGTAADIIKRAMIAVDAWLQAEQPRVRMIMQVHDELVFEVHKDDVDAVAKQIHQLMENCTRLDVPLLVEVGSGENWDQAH
T3 sequence (P19821 whole entry): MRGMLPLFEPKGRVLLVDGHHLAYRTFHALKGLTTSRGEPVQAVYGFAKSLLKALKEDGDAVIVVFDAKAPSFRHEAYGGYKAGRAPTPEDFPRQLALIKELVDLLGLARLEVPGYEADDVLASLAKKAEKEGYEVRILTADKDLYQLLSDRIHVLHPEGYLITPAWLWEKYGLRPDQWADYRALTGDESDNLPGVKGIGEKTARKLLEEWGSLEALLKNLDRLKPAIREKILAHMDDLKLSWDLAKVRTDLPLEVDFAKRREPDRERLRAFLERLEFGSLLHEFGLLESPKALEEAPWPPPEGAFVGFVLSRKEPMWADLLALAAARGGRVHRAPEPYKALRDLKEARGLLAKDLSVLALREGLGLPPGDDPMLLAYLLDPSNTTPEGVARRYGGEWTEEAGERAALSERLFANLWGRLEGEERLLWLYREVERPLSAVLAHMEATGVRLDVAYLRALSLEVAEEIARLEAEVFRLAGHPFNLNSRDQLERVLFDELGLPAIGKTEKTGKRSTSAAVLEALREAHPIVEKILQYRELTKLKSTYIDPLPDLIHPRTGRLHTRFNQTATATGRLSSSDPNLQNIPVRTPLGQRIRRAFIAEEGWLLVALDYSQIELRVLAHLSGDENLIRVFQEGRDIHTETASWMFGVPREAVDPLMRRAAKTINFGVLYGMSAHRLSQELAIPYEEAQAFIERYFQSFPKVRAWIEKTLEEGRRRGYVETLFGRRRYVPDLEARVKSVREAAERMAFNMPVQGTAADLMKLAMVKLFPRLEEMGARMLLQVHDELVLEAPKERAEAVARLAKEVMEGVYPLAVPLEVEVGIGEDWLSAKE
T4 sequence (P19821 whole entry): as above
T5 sequence (P19821 whole entry): as above

**Q.** Which results are given for “4-(aminobutyl)-2-(adenosin-9-yl)-6-(hydroxymethyl)morpholine 6-triphosphate [morpholino A putrescine]”?
**A.** enzymatic incorporation at 3' end of primer A [1]: incorporate; interruption of chain elongation after incorporation [1]: interruption of the elongation of the chain; enzymatic incorporation at 3' end of primer A (Klenow fragment): incorporate; interruption of chain elongation after incorporation (Klenow fragment): interruption of the elongation of the chain; enzymatic incorporation at 3' end of primer A (Taq DNA polymerase): incorporate; interruption of chain elongation after incorporation (Taq DNA polymerase): interruption of the elongation of the chain

**Q.** What does the source list for “4-(carboxymethyl)-2-(thymidin-1-yl)-6-(hydroxymethyl)morpholine 6-triphosphate [morpholino T glycine]”?
**A.** action as chain terminator in sequencing reaction (Taq polymerase): acts correctly as a chain terminator; incorporation by the Taq polymerase in sequencing reaction (Taq polymerase): correctly incorporated in a base-specific manner

**Q.** For `Nc1ncnc2c1ncn2C1CN(CCCCNC(=S)Nc2ccc3c(c2)C(=O)OC32c3ccc(O)cc3Oc3cc(O)ccc32)CC(COP(=O)(O)OP(=O)(O)OP(=O)(O)O)O1` (stereo not drawn) [morpholino A fluorescein], which “detection of sequencing reaction products” value (Taq polyerase) is on record?
**A.** detected by means of the fluorophore borne by this derivative

**Q.** And the “enzymatic incorporation at 3' end of primer A” value (“enzymatic incorporation” below) [1]?
**A.** incorporate

**Q.** And the “interruption of chain elongation after incorporation” value (shortened to “interruption of chain elongation”) [1]?
**A.** stops the polymerization of the complementary strand

**Q.** What about the “enzymatic incorporation” value (Klenow fragment) of the same compound?
**A.** incorporate

**Q.** And the “interruption of chain elongation” value (Klenow fragment)?
**A.** stops the polymerization of the complementary strand

**Q.** And the “enzymatic incorporation” value (Taq DNA polymerase)?
**A.** incorporate

**Q.** And the “interruption of chain elongation” value (Taq DNA polymerase)?
**A.** stops the polymerization of the complementary strand
